Assay results published in paper PMC12310023 (PLOS Neglected Tropical Diseases, 2025).

What was measured:
CYP2D6 = CYP2D6 (Homo sapiens, UniProt P10635); experiment: CYP reaction phenotyping, recombinant supersomes
Cav1.2 (L-type) = Cav1.2 (L-type) (Homo sapiens, UniProt Q13936); experiment: Bioprofiling panel functional assay; format: cell-based; settings: 6 pt dilutions starting at 10 μM; read-out: IC50, antagonist readout
Cl- channel (GABA-gated) = experiment: Cerep binding assay
PPARУ = molecular target: T1, PPARУ (Homo sapiens, UniProt P37231); experiment: Cerep cellular and nuclear receptor functional assay; format: cell-based
T1 construct: Cerep (Eurofins, France)
T1 sequence (P37231 1-505): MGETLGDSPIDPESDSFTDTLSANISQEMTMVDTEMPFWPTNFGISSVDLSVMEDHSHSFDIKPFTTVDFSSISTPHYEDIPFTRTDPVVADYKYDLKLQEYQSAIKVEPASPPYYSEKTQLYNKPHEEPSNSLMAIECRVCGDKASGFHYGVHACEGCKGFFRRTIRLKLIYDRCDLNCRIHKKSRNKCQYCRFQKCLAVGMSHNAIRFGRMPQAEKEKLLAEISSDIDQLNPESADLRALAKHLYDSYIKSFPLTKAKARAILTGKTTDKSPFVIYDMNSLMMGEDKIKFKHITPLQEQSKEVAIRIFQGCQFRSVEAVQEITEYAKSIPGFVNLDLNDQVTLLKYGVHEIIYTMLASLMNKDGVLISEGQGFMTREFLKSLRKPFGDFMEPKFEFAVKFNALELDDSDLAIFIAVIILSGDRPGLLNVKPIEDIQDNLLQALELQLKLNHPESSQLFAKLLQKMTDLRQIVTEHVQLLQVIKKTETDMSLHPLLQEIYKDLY

CYP2C19 = CYP2C19 (Homo sapiens, UniProt P33261); experiment: in vitro; settings: recombinant CYP2C19 supersomes
[1] = Plasma protein binding, equilibrium dialysis; settings: human
[2] = HCT-8 host cell count (Calibr); settings: human
Salmonella bacteria = experiment: microAmes (μAmes) test
[3] = Stability of M2 hemiaminal in buffer; format: physicochemical; settings: pH 6.8 phosphate buffer, ambient temperature
CYP2C9 [4] = molecular target: T2, CYP2C9 (Homo sapiens, UniProt P11712); experiment: CYP reaction phenotyping, recombinant supersomes
Hepatocyte stability [5] = settings: mouse
CYP3A4 [6] = molecular target: T3, CYP3A4 (Homo sapiens, UniProt P08684); experiment: in vitro; settings: recombinant CYP3A4 supersomes
CYP3A4 [7] = molecular target: T3, CYP3A4; experiment: biochemical
CYP2C9 [8] = molecular target: T2, CYP2C9; experiment: in vitro; settings: recombinant CYP2C9 supersomes
Hepatocyte stability [9] = settings: monkey
CYP2C8 = molecular target: T4, CYP2C8 (Homo sapiens, UniProt P10632); experiment: in vitro; settings: recombinant CYP2C8 supersomes
T4 sequence (P10632 1-490): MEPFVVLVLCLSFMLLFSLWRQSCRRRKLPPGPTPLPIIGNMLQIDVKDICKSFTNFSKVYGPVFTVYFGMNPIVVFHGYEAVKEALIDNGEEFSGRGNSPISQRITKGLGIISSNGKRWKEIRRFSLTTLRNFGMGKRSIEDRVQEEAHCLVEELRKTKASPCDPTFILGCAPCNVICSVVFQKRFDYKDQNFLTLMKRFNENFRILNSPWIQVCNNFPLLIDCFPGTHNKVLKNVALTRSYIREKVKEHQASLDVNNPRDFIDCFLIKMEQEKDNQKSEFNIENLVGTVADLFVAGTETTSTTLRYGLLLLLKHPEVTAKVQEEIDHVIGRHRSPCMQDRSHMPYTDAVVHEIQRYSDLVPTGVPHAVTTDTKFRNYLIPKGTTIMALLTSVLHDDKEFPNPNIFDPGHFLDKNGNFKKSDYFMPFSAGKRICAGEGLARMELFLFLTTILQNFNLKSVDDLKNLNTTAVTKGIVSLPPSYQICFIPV

[10] = Plasma protein binding, equilibrium dialysis; settings: mouse
Cytotoxicity [11] = settings: human, HEPG2 hepatocyte cell line
[12] = system: panel of 71 common liability targets; experiment: Cerep panel of 71 common liability targets; format: binding; settings: read-out: IC50s, all Cerep targets except AT2
Cytotoxicity [13] = settings: human, CRL-8155 B-lymphocyte cell line
[14] = Plasma protein binding, equilibrium dialysis; settings: bovine
[15] = Balb/c, mouse, plasma, iv, 1 mg/kg
[16] = Balb/c, mouse, plasma, po, 30 mg/kg
[17] = liver microsomes and primary hepatocytes

T2 sequence (P11712 whole entry): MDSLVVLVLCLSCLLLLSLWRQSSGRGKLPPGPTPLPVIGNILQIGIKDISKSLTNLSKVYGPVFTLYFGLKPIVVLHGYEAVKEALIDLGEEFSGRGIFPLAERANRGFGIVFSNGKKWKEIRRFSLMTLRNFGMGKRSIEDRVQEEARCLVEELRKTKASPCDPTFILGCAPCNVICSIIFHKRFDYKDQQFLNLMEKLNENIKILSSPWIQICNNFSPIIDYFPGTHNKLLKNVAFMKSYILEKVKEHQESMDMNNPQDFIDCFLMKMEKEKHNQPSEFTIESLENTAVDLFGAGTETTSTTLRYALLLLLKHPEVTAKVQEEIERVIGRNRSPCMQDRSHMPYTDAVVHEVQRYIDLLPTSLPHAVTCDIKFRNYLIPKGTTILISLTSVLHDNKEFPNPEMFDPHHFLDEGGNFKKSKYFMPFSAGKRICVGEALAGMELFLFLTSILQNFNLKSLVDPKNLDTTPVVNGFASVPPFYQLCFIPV
T3 sequence (P08684 whole entry): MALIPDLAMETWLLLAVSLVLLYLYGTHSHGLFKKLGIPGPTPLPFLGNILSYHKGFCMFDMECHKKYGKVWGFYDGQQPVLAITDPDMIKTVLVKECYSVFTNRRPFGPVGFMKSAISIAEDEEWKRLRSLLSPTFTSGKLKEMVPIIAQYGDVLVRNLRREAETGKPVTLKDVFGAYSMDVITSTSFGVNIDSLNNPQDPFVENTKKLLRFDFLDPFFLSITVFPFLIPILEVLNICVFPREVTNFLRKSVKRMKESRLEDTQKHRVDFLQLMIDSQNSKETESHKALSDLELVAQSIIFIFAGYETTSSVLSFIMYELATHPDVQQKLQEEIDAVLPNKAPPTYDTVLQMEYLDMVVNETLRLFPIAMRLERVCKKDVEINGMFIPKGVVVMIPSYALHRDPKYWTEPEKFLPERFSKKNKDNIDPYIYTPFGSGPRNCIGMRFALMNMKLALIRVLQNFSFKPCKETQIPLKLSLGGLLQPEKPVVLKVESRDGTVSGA
Chain of CYP2C19 (P33261 whole entry): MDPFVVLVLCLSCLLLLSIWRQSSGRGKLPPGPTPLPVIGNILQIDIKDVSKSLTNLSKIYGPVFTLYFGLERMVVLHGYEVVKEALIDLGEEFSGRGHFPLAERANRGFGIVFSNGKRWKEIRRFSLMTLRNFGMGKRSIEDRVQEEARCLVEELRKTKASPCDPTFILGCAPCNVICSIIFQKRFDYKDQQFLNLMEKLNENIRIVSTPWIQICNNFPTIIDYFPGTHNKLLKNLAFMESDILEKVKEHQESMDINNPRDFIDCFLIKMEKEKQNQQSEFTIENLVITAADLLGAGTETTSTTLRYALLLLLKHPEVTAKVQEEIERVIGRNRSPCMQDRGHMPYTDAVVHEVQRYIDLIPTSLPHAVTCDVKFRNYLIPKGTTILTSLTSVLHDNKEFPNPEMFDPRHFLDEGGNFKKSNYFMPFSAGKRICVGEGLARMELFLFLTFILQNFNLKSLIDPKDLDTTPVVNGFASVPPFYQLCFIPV
Chain of CYP2D6 (P10635 whole entry): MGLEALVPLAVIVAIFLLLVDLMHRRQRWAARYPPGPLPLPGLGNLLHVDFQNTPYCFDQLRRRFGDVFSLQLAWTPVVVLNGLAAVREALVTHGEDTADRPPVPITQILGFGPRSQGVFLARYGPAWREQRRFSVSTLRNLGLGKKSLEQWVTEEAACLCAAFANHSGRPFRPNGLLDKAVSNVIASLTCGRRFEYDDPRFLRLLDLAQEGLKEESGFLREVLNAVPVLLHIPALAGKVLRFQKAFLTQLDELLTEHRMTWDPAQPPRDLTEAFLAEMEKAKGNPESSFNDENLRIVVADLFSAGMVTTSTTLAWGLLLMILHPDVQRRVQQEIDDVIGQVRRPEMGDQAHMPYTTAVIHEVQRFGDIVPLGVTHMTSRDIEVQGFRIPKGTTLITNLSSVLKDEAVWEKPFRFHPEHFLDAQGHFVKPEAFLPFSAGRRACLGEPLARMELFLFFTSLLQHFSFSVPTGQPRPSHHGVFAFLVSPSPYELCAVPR
Chain of Cav1.2 (L-type) (Q13936 whole entry): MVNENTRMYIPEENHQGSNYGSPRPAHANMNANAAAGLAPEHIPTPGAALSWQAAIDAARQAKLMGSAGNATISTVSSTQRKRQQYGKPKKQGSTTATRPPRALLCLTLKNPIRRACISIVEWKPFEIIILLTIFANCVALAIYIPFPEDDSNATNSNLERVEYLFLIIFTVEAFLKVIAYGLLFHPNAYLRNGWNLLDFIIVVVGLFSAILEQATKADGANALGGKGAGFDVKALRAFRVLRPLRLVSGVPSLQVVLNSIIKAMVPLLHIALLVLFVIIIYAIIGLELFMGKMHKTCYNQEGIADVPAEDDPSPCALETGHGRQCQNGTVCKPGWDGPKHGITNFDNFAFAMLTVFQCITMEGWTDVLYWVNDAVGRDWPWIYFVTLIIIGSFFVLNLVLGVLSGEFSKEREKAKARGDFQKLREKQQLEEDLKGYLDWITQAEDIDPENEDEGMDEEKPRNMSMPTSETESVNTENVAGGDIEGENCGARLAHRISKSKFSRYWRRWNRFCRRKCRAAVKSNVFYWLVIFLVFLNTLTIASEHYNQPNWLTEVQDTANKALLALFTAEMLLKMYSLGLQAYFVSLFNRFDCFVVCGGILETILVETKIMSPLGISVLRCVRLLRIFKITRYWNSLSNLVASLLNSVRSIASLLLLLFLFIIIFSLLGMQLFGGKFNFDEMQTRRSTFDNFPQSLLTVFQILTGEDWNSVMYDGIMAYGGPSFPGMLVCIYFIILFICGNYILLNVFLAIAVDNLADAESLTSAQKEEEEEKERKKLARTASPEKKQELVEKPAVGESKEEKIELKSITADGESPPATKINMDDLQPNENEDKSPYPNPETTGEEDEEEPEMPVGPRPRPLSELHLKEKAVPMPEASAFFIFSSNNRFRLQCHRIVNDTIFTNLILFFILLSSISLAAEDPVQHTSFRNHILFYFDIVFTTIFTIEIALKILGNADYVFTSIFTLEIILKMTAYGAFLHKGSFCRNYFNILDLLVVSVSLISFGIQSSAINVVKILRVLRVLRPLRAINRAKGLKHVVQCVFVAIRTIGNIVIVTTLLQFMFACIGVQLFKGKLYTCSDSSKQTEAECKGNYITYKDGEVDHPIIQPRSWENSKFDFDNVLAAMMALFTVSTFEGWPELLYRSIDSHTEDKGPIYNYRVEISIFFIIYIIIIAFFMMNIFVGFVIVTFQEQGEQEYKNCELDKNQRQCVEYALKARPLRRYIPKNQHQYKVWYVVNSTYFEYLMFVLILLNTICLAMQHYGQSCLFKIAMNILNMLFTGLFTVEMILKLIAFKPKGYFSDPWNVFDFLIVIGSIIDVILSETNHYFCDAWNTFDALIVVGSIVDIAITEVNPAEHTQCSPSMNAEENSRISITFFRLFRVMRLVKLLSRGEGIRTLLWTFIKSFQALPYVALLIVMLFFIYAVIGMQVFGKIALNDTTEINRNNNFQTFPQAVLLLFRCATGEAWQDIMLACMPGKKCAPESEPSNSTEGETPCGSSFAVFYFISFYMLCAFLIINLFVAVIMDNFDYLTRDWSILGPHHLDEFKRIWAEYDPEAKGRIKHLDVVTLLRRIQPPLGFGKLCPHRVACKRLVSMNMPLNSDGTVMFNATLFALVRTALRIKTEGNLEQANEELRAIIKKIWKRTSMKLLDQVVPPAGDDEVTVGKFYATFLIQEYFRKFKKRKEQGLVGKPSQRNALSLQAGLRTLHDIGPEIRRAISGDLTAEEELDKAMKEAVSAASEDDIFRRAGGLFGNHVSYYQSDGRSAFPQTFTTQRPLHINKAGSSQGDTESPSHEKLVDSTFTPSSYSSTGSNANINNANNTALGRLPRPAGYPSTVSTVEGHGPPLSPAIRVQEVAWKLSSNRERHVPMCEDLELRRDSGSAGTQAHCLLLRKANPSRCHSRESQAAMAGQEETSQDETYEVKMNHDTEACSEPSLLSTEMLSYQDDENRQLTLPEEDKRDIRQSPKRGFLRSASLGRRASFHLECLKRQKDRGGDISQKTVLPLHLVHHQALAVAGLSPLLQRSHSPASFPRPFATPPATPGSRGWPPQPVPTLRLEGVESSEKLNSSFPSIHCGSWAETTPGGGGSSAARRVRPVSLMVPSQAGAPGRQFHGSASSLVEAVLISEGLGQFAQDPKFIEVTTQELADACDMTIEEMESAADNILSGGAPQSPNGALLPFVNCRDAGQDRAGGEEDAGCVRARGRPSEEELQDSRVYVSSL
Chain of Cav1.2 (L-type) (Q08289 whole entry partner): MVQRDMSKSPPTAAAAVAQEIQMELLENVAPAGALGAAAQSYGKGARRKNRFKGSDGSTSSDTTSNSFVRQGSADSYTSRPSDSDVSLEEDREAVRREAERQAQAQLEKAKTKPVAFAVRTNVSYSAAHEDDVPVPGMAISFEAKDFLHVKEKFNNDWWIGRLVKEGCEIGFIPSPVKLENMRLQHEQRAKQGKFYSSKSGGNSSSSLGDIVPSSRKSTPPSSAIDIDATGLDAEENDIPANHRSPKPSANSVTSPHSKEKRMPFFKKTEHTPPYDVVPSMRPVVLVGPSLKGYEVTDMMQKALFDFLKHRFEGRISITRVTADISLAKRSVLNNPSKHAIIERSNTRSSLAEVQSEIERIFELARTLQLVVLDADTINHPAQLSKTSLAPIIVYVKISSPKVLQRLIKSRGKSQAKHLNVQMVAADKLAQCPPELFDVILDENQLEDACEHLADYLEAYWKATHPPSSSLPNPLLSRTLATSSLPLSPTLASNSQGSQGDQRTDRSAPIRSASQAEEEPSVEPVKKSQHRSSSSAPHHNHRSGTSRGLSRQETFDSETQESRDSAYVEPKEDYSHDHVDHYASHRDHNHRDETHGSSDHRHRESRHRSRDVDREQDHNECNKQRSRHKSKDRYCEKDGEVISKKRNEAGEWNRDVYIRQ

For `CC1(C)Cn2nc(-c3ccc4cc(OC5CC5)ccc4c3)c(C(N)=O)c2NC1O` (stereo not drawn) [M2], the “% contribution” value (CYP2D6) was 0.0%, the CLint (CYP2D6) was under 0.029 µL/min/pmol and the “M2 AUC0-inf” value (Mouse PK, IFNγ-KO BL6; after BKI-1708 IV 3 mg/kg) was 792 ± 18 µmol·min/L. The “M2 AUC0-inf” value (Mouse PK, IFNγ-KO BL6; after BKI-1708 PO 15 mg/kg) was 5948 ± 1398 µmol·min/L, the IC50 (Cav1.2 (L-type)) was 8.1 µM and the IC50 (Cl- channel (GABA-gated)) was 17 µM. The “% inhibition of control specific binding” value (Cl- channel (GABA-gated); 10 μM, antagonist radioligand, mean) was 50.6%, the agonist effect (PPARУ) was “no effect up to 100 μM” and the IC50 (PPARУ; read-out: IC50, antagonist effect) was over 100 µM. For the same compound, the C0 (Mouse PK, Balb/c; [15]) was 4.2 ± 1.3 µM, the Vd (Mouse PK, Balb/c; [15]) was 0.9 L/kg and the clearance (Mouse PK, Balb/c; [15]) was 6.2 mL/min/kg. It also gave a half-life (Mouse PK, Balb/c; [15]) of 1.77 h, a Cmax (Mouse PK, Balb/c; [16]) of 13.1 ± 1.3 µM and a Tmax (Mouse PK, Balb/c; [16]) of 1.5 h. It also gave a bioavailability (Mouse PK, Balb/c; [16]) of 43%, a half-life (Mouse PK, Balb/c; [16]) of 3.07 h and an AUC0-inf (Mouse PK, Balb/c; M2 IV 1 mg/kg) of 400 ± 42 µmol·min/L. The AUC0-inf (Mouse PK, Balb/c; M2 PO 30 mg/kg) was 5185 ± 1500 µmol·min/L, the “M2 AUC0-inf” value (Mouse PK, Balb/c; after BKI-1708 IV 3 mg/kg) was 988 ± 162 µmol·min/L and the “M2 AUC0-inf” value (Mouse PK, Balb/c; after BKI-1708 PO 15 mg/kg) was 6445 ± 654 µmol·min/L. It also gave a CLint scaled (CYP2C19) of under 0.117 mL/min/kg, a half-life (CYP2C19) of over 4 h and a fraction unbound [1] of 0.04. It also gave a CC50 ([2]; CC50, HCT-8 cells infected with BGF Cp, Replicate 1) of over 25 µM, a CC50 ([2]; CC50, HCT-8 cells infected with BGF Cp, Replicate 2) of over 25 µM and a CC50 ([2]; CC50, HCT-8 cells infected with Ch, Replicate 1) of over 25 µM. The CC50 ([2]; CC50, HCT-8 cells infected with Ch, Replicate 2) was over 25 µM, the CC50 ([2]; CC50, HCT-8 cells infected with UA Nluc Cp, Replicate 1) was over 25 µM and the CC50 ([2]; CC50, HCT-8 cells infected with UA Nluc Cp, Replicate 2) was over 25 µM. For the same compound, the μAmes test result (Salmonella bacteria) was “negative”, the time hemiaminal stable [3] was “up to 24 h” and the “% contribution” value (CYP2C9 [4]) was 0.0%. The CLint (CYP2C9 [4]) was under 0.029 µL/min/pmol, the “LM:hepatocyte CLint_scaled ratio” value (Hepatocyte stability [5]; [17]) was 1.7 and the CLint scaled (Hepatocyte stability [5]; primary hepatocytes) was 45 mL/min/kg. It also gave a half-life (Hepatocyte stability [5]; primary hepatocytes) of 4.37 h, a hepatocyte CLint (Hepatocyte stability [5]; primary hepatocytes) of 5.3 µL/min/1e6 cells and a CLint scaled (CYP3A4 [6]) of 5.02 mL/min/kg. It also gave a half-life (CYP3A4 [6]) of 0.817 h, an IC50 (CYP3A4 [7]) of over 40 µM and a CLint scaled (CYP2C9 [8]) of under 1.78 mL/min/kg. The half-life (CYP2C9 [8]) was over 4 h, the “LM:hepatocyte CLint_scaled ratio” value (Hepatocyte stability [9]; [17]) was 5.5 and the CLint scaled (Hepatocyte stability [9]; primary hepatocytes) was 10 mL/min/kg. For the same compound, the half-life (Hepatocyte stability [9]; primary hepatocytes) was 6.48 h, the hepatocyte CLint (Hepatocyte stability [9]; primary hepatocytes) was 3.6 µL/min/1e6 cells and the CLint scaled (CYP2C8) was under 1.78 mL/min/kg. For the same compound, the half-life (CYP2C8) was over 4 h, the fraction unbound [10] was 0.04 and the CC50 (Cytotoxicity [11]) was 13.4 µM. The IC50 [12] was over 10 µM, the CC50 (Cytotoxicity [13]) was 15.6 µM and the fraction unbound [14] was 0.05.
